Measured values taken from PMC9917099, “The Mycotoxin Patulin Inhibits the Mitochondrial Carnitine/Acylcarnitine Carrier (SLC25A20) by Interaction with Cys136 Implications for Human Health” (International Journal of Molecular Sciences, 2023).

Experiment: Stability of PAT solution stored at room temperature, read out as inhibition of recombinant WT CAC transport
Assay type: physicochemical
Details: 25 and 50 µM PAT, stored at r.t., 24 and 72 h
Source text: Figure 3A reports the interaction of PAT with the reconstituted WT protein. The inhibition observed after the pretreatment of proteoliposomes with the mycotoxin was not reversed by DTE, confirming the formation of an irreversible covalent bond between CAC and PAT also with the purified recombinant protein (see above Figure 1B). For evaluating the stability of the drug following prolonged storage, we measured the inhibition of the transport activity of WT adding to the samples, at various time, the same PAT solution stored at room temperature (r.t.).
Figure 3 (A) Reversal of PAT inhibition on recombinant protein by DTE. The carnitine homo-exchange transport activity was measured, as described in Materials and Methods, adding 0.1 mM [^3H] carnitine to proteoliposomes reconstituted with the recombinant WT CAC containing 15 mM internal carnitine in the absence or presence of 50 μM PAT, added 30 min before the labelled substrate. 5 mM dithioerythritol (DTE) was added 1 min before the transport assay in a control and PAT treated aliquot, respectively. […] Proteoliposomes reconstituted with the WT CAC were incubated by the same PAT solution (25 and 50 µM) after 0.5 h, 24 h and 72 h (white, grey and black bars, respectively) and then the transport activity was measured by adding 0.1 mM [^3H]-carnitine and stopped after 30 min as described in Materials and Methods.

O=C1C=C2C(=CCOC2O)O1 (stereo not shown) [PAT, 4-hydroxy-4H-furo [3,2c] pyran-2 [6H] -one]
reactivity towards CAC of stored PAT solution: does not change
